Measured values taken from patent US11945822B2, “Pyrazolo-triazine and/or pyrazolo-pxrimidine derivatives as selective inhibitor of cyclin dependent kinase” (QURIENT CO., LTD., priority 2018, dated 2024).

Tests used:
Experiment in all cases: In vitro IC50 profile for CDKs family kinase (33PanQinase radiometric assay)
Assay type in all cases: biochemical
Conditions in all cases: CDK7 selectivity profile in CDKs family
CDK19/CycC = biological target: T1, CDK19/CycC (Homo sapiens, UniProt Q9BWU1)
T1 construct: either as full-length or enzymatically active fragments; purchased ProQinase GmbH (Freiburg, Germany)
Description: (§1) In Vitro IC50 Profile for CDK7 Inhibitor Among 28 CDKs Family Kinases.
(§2) The IC50 profile of compounds were determined using 28 CDKs family protein kinases through ProQinase GmbH (Freiburg, Germany). All the protocol and materials had been provided by ProQinase GmbH. Briefly, in the process, 90 μl H2O were added to each well of a compound dilution plate. To minimize potential precipitation, the H2O was added to the plate only a few minutes before the transfer of the compound solutions into the assay plates. The plate was shaken thoroughly, resulting in a “compound dilution plate/10% DMSO”. The compound dilution plate(s) were discarded at the end of the working day. For the assays (see below), 5 μl solution from each well of the compound dilution plate were transferred into the assay plates. The final volume of the assay was 50 μl. All compounds were tested at 10 final assay concentrations in the range from 1×10^−05 M to 3×10^−10 M. The final DMSO concentration in the reaction cocktails was 1% in all cases. All protein kinases provided by ProQinase were expressed in Sf9 insect cells or in E. coli as recombinant GST-fusion proteins or His-tagged proteins, either as full-length or enzymatically active fragments. All kinases were produced from human cDNAs and purified by either GSH affinity chromatography or immobilized metal affinity chromatography. The purity of the protein kinases was examined by SDS-PAGE/Coomassie staining, the identity was checked by mass spectroscopy. Kinases from external vendors, Carna Biosciences Inc.; Invitrogen Corp.; and Millipore Corp., were expressed, purified and quality-controlled by virtue of the vendors readings. A radiometric protein kinase assay (^33PanQinase® Activity Assay) was used for measuring the kinase activity of the 28 protein kinases. All kinase assays were performed in 96-well FlashPlates™ from PerkinElmer (Boston, MA, USA) in a 50 μl reaction volume. The reaction cocktails were incubated at 30° C. for 60 minutes. The reaction was stopped with 50 μl of 2% (v/v) H3PO4, plates were aspirated and washed two times with 200 μl 0.9% (w/v) NaCl. Incorporation of ^33Pi was determined with a microplate scintillation counter (Microbeta, Wallac). All assays were performed with a BeckmanCoulter/SAGIAN™ Core System. As part of the data evaluation the low control value from a particular plate was subtracted from the high control value as well as from all 80 “compound values” of the corresponding plate. The residual activity (in %) for each well of a particular plate was calculated by using the following formula: Res. Activity (%)=100×[(cpm of compound−low control)/(high control−low control)]. Results are represented in table (table 10).

CDK1/CycE1 = biological target: T2, CDK1/CycE1 (Homo sapiens, UniProt P06493)
T2 construct: purchased ProQinase GmbH
Description: as §1, §2

CDK16/CycY = biological target: T3, CDK16/CycY (Homo sapiens, UniProt Q00536)
T3 construct: either as full-length or enzymatically active fragments; purchased ProQinase GmbH (Freiburg, Germany)
Description: as §1, §2

CDK5/p25NCK = biological target: T4, CDK5/p25NCK (Homo sapiens, UniProt Q00535)
T4 construct: purchased ProQinase GmbH
Description: as §1, §2

CDK2/CycD1 = biological target: T5, CDK2/CycD1 (Homo sapiens, UniProt P24941)
T5 construct: purchased ProQinase GmbH
Description: as §1, §2

CDK1/CycA2 = biological target: T6, CDK1/CycA2 (Homo sapiens, UniProt P06493)
T6 construct: purchased ProQinase GmbH
Description: as §1, §2

CDK2/CycE1 = biological target: T7, CDK2/CycE1 (Homo sapiens, UniProt P24941)
T7 construct: purchased ProQinase GmbH
Description: as §1, §2

CDK13/CycK = biological target: T8, CDK13/CycK (Homo sapiens, UniProt Q14004)
T8 construct: either as full-length or enzymatically active fragments; purchased ProQinase GmbH (Freiburg, Germany)
Description: as §1, §2

CDK12 wt/CycK = biological target: T9, CDK12 wt/CycK (Homo sapiens, UniProt Q9NYV4)
T9 construct: purchased ProQinase GmbH
Description: as §1, §2

CDK4/CycD2 = biological target: T10, CDK4/CycD2 (Homo sapiens, UniProt P11802)
T10 construct: purchased ProQinase GmbH
Description: as §1, §2

CDK6/CycD2 = biological target: T11, CDK6/CycD2 (Homo sapiens, UniProt Q00534)
T11 construct: purchased ProQinase GmbH
Description: as §1, §2

CDK17/p35NCK = biological target: T12, CDK17/p35NCK (Homo sapiens, UniProt Q00537)
T12 construct: either as full-length or enzymatically active fragments; purchased ProQinase GmbH (Freiburg, Germany)
Description: as §1, §2

CDK5/p35NCK = biological target: T13, CDK5/p35NCK (Homo sapiens, UniProt Q00535)
T13 construct: purchased ProQinase GmbH
Description: as §1, §2

CDK6/CycD1 = biological target: T14, CDK6/CycD1 (Homo sapiens, UniProt Q00534)
T14 construct: purchased ProQinase GmbH
Description: as §1, §2

CDK4/CycD3 = biological target: T15, CDK4/CycD3 (Homo sapiens, UniProt P11802)
T15 construct: purchased ProQinase GmbH
Description: as §1, §2

CDK2/CycA2 = biological target: T16, CDK2/CycA2 (Homo sapiens, UniProt P24941)
T16 construct: purchased ProQinase GmbH
Description: as §1, §2

CDK6/CycD3 = biological target: T17, CDK6/CycD3 (Homo sapiens, UniProt Q00534)
T17 construct: purchased ProQinase GmbH
Description: as §1, §2

CDK1/CycB1 = biological target: T18, CDK1/CycB1 (Homo sapiens, UniProt P06493)
T18 construct: purchased ProQinase GmbH
Description: as §1, §2

CDK7/CycH/MAT1 = biological target: T19, CDK7/CycH/MAT1 (Homo sapiens, UniProt P50613)
T19 construct: purchased ProQinase GmbH
Description: as §1, §2

CDK8/CycC = biological target: T20, CDK8/CycC (Homo sapiens, UniProt P49336)
T20 construct: purchased ProQinase GmbH
Description: as §1, §2

CDK9/CycT1 = biological target: T21, CDK9/CycT1 (Homo sapiens, UniProt P50750)
T21 construct: purchased ProQinase GmbH
Description: as §1, §2

CDK12 R722C/CycK = biological target: T22, CDK12 R722C/CycK (Homo sapiens, UniProt Q9NYV4, R722C)
T22 construct: either as full-length or enzymatically active fragments; purchased ProQinase GmbH (Freiburg, Germany)
Description: as §1, §2

CDK4/CycD1 = biological target: T23, CDK4/CycD1 (Homo sapiens, UniProt P11802)
T23 construct: purchased ProQinase GmbH
Description: as §1, §2

CDK3/CycE1 = biological target: T24, CDK3/CycE1 (Homo sapiens, UniProt Q00526)
T24 construct: purchased ProQinase GmbH
Description: as §1, §2

CDK20/CycT1 = biological target: T25, CDK20/CycT1 (Homo sapiens, UniProt Q8IZL9)
T25 construct: either as full-length or enzymatically active fragments; purchased ProQinase GmbH (Freiburg, Germany)
Description: as §1, §2

T8 sequence (Q14004 whole entry, the tested form may be a part): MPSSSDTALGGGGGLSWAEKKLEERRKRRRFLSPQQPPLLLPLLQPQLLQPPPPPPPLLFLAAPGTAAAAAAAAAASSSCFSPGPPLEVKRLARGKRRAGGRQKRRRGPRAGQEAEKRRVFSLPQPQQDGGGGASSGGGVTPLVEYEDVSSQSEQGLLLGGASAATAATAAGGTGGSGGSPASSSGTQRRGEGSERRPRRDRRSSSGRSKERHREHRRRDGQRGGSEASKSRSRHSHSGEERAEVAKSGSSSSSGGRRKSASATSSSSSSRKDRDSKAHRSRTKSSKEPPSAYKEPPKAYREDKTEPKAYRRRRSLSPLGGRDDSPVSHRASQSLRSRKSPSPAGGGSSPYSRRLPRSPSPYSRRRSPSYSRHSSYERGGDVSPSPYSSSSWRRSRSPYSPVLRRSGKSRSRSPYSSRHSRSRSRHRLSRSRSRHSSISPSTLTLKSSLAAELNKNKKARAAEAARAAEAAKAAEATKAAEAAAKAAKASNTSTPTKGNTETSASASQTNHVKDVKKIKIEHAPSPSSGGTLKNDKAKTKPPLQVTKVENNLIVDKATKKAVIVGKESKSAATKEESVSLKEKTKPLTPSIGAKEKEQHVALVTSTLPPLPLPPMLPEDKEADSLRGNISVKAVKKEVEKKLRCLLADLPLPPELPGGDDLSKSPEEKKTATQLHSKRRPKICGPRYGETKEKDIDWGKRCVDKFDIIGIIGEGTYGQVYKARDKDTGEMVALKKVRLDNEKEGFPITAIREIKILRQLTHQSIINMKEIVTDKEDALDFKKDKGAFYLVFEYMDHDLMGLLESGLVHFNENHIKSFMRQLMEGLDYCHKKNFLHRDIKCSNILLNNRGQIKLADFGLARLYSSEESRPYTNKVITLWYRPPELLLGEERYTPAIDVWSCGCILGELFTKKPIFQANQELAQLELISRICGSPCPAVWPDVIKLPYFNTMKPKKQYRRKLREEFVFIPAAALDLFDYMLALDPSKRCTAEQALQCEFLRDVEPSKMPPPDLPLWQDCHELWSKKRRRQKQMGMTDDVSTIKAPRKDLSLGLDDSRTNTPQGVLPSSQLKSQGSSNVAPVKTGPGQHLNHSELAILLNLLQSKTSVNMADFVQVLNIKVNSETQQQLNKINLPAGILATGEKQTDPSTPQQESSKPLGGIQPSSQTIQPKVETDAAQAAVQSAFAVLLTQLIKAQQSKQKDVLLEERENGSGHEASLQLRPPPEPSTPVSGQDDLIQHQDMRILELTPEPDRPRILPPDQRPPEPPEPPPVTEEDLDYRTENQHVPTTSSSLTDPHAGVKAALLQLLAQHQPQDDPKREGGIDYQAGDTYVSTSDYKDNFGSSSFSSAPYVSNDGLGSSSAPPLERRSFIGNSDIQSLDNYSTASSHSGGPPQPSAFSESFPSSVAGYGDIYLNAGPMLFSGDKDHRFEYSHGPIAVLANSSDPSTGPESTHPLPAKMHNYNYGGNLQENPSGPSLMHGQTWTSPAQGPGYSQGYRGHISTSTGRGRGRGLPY
T8 sequence (O75909 whole entry partner, the tested form may be a part): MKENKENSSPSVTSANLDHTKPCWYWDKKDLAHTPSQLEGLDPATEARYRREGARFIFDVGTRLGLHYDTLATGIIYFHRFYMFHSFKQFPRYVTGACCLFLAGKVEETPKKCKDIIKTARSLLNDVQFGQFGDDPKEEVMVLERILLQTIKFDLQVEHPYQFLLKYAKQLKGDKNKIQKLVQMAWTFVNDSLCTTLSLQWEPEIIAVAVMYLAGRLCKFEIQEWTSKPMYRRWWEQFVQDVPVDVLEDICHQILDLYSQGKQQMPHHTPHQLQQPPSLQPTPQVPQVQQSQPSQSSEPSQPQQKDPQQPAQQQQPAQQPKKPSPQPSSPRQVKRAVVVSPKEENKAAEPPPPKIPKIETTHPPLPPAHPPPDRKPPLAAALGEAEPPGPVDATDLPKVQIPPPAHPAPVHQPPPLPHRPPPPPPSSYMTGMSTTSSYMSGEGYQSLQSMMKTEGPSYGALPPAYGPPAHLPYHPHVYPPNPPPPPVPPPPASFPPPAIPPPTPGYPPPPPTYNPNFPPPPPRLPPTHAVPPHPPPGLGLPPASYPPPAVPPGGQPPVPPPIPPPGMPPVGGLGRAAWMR
T21 sequence (P50750 whole entry): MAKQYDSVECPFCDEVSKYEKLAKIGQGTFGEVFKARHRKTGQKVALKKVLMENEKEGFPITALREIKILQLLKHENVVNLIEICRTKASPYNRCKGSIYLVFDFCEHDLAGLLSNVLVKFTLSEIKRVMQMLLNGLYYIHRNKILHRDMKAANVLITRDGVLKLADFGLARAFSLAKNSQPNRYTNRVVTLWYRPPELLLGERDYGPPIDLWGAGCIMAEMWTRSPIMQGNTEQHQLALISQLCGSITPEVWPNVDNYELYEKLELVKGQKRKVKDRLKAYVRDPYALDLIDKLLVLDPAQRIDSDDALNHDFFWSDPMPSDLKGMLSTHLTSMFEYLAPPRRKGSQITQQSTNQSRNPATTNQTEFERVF
T21 sequence (O60563 whole entry partner): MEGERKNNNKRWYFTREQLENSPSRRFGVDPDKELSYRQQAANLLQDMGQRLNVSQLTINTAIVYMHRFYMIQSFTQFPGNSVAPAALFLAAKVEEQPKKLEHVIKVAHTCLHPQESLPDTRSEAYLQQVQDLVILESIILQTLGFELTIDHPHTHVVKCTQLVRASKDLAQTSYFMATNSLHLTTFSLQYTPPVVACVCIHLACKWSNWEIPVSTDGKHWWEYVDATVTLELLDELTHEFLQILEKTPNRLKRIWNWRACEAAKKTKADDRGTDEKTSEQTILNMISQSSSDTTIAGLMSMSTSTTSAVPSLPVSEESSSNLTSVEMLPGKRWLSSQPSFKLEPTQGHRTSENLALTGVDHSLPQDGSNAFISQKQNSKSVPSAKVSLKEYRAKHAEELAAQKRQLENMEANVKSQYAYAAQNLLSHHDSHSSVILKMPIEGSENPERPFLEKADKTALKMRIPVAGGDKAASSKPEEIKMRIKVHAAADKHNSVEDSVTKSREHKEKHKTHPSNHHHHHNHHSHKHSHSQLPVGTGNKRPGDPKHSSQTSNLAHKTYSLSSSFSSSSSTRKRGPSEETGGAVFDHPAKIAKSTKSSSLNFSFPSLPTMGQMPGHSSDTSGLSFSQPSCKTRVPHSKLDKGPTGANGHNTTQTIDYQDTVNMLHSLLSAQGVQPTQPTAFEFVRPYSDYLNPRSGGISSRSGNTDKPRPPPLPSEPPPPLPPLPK
T3 sequence (Q00536 whole entry, the tested form may be a part): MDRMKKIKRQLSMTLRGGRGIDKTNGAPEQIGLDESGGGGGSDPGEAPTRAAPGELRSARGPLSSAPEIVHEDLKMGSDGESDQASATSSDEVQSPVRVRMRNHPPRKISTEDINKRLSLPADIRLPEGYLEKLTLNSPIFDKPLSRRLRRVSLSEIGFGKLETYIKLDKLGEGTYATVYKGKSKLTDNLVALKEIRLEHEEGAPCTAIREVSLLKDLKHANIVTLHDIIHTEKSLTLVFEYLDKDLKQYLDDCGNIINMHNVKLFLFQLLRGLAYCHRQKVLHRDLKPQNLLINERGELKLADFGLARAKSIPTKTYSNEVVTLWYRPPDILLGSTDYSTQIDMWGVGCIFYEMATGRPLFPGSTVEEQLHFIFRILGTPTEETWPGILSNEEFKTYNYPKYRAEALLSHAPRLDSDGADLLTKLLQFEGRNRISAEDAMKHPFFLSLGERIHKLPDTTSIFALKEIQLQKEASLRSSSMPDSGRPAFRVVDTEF
T3 sequence (Q8ND76 whole entry partner, the tested form may be a part): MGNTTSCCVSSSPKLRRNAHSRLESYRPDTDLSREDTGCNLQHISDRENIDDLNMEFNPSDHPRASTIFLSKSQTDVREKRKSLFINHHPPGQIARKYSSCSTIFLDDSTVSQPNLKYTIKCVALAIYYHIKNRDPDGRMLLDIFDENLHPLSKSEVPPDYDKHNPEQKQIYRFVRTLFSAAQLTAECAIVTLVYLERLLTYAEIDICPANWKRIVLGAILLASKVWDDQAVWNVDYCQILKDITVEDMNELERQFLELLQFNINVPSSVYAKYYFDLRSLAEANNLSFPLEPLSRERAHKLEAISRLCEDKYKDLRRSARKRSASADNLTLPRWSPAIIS
T15 sequence (P11802 whole entry): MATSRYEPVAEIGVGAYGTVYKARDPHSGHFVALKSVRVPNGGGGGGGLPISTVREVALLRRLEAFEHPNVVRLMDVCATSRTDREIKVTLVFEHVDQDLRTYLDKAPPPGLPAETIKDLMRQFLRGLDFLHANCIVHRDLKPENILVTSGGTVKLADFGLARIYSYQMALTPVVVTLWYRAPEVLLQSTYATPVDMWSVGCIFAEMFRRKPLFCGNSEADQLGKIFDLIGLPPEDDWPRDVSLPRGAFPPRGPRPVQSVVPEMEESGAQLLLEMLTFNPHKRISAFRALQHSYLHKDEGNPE
T15 sequence (P30281 whole entry partner): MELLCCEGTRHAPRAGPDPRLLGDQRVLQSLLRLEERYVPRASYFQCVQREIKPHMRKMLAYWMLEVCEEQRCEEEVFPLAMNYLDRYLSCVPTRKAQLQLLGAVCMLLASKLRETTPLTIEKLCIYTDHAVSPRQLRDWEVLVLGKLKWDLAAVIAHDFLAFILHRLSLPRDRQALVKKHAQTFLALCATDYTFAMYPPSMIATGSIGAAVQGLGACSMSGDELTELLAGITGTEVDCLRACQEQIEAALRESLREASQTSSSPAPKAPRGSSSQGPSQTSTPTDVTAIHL
T10 sequence (P11802 whole entry): as the sequence (P11802 whole entry) above
T10 sequence (P30279 whole entry partner): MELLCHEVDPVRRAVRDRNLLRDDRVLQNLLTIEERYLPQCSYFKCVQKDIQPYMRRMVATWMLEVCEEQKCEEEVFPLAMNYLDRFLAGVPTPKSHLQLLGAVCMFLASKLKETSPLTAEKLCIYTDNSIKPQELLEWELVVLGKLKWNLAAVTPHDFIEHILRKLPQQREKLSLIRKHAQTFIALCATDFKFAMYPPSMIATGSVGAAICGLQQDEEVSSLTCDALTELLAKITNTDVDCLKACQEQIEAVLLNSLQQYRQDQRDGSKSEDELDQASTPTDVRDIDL

CC(C)c1cnn2c(NCc3c(Cl)cccc3-n3ccc(C(C)(C)O)n3)nc(N3CCC(N)CC3)nc12 [Compound 210]
IC50 (CDK19/CycC): > 10 µM | IC50 (CDK1/CycE1): > 10 µM | IC50 (CDK16/CycY): 3.96 µM | IC50 (CDK5/p25NCK): > 10 µM | IC50 (CDK2/CycD1): > 10 µM | IC50 (CDK1/CycA2): > 10 µM | IC50 (CDK2/CycE1): 3.48 µM | IC50 (CDK13/CycK): > 10 µM | IC50 (CDK12 wt/CycK): > 10 µM | IC50 (CDK4/CycD2): > 10 µM | IC50 (CDK6/CycD2): > 10 µM | IC50 (CDK17/p35NCK): > 10 µM | IC50 (CDK5/p35NCK): 4.79 µM | IC50 (CDK6/CycD1): > 10 µM | IC50 (CDK4/CycD3): > 10 µM | IC50 (CDK2/CycA2): 3.61 µM | IC50 (CDK6/CycD3): > 10 µM | IC50 (CDK1/CycB1): > 10 µM | IC50 (CDK7/CycH/MAT1): 0.015 µM | IC50 (CDK8/CycC): > 10 µM | IC50 (CDK9/CycT1): > 10 µM | IC50 (CDK12 R722C/CycK): > 10 µM | IC50 (CDK4/CycD1): > 10 µM | IC50 (CDK3/CycE1): > 10 µM | IC50 (CDK20/CycT1): > 10 µM
